In patent US20230247994A1, “HETEROCYCLENE DERIVATIVES AS PEST CONTROL AGENTS” (Bayer Aktiengesellschaft, priority 2020, published 2023):

How the values were obtained:
Spodoptera frugiperda = Spodoptera frugiperda spray test (maize leaf disks); format: in vivo; conditions: foliar, 168 h, application rate 100 g/ha, caterpillars, after 7 days, 100% = all caterpillars killed, read-out: efficacy in %
Source text: Spodoptera frugiuerda—Spray Test
Solvent: 78.0 parts by weight of acetone • • 1.5 parts by weight of dimethylformamide
Emulsifier: alkylaryl polyglycol ether
An appropriate active ingredient formulation is produced by dissolving 1 part by weight of active ingredient with the stated parts by weight of solvent and making the solution up to the desired concentration with water containing an emulsifier concentration of 1000 ppm. Further test concentrations are produced by diluting the formulation with emulsifier-containing water.
Leaf disks of maize (Zea mays) are sprayed with an active ingredient formulation of the desired concentration and, after drying, populated with caterpillars of the fall armyworm (Spodopterafrugiperda).
After 7 days, efficacy in % is determined. 100% means that all of the caterpillars have been killed; 0% means that none of the caterpillars have been killed.

Diabrotica balteata = Diabrotica balteata spray test (germinated wheat grains); format: in vivo; conditions: 168 h, application rate 100 g/ha (=32 μg/cavity), after 7 days, beetle larvae on wheat, 100% = all wheat plants grown as in untreated, uninfected control, read-out: efficacy in %
Source text: Diabrotica Balteata—Spray Test Solvent: 78 parts by weight of acetone • • 1.5 parts by weight of dimethylformamide Emulsifier: alkylaryl polyglycol ether An appropriate active ingredient formulation is produced by dissolving 1 part by weight of active ingredient with the stated parts by weight of solvent and making the solution up to the desired concentration with water containing an emulsifier concentration of 1000 ppm. Further test concentrations are produced by diluting the formulation with emulsifier-containing water. Pre-swollen wheat grains (Triticum aestivum) are incubated in a multiwell plate filled with agar and a little water for one day (5 seed grains per cavity). The germinated wheat grains are sprayed with an active ingredient formulation of the desired concentration. Subsequently, each cavity is infected with 10-20 beetle larvae of Diabrotica balteata. After 7 days, efficacy in % is determined. 100% means that all wheat plants have grown as in the untreated, uninfected control; 0% means that no wheat plant has grown.

Structure (SMILES)	pest or weed control at 100 g/ha (Spodoptera frugiperda)	pest or weed control at 100 g/ha (Diabrotica balteata)
CCS(=O)(=O)c1c(-c2nc3cc4c(cc3n2C)OC(F)(F)C(F)(F)O4)nc(-c2ccc(-c3ccc(Br)cn3)cn2)n1C [Example I-25]	100%	
CCS(=O)(=O)c1c(-c2nc3cc4c(cc3n2C)OC(F)(F)C(F)(F)O4)nc(-c2ccc(Cl)cn2)n1C [Example I-31, 2-[2-(5-Chloropyridin-2-yl)-5-(ethylsulfonyl)-1-methyl-1H-imidazol-4-yl]-6,6,7,7-tetrafluoro-1-methyl-6,7-dihydro-1H-[1,4]dioxino[2,3-f]benzimidazole]	100%	
CCS(=O)(=O)c1c(-c2nc3cc4c(cc3n2C)OC(F)(F)C(F)(F)O4)nc(-c2ccc(F)cc2)n1C [Example I-5, 2-[5-(Ethylsulfonyl)-2-(4-fluorophenyl)-1-methyl-1H-imidazol-4-yl]-6,6,7,7-tetrafluoro-1-methyl-6,7-dihydro-1H-[1,4]dioxino[2,3-f]benzimidazole]	100%	100%
CCS(=O)(=O)c1c(-c2nc3cc4c(cc3n2C)OC(F)(F)C(F)(F)O4)nc(-c2cccc(Br)c2)n1C [Example I-12, 2-[2-(3-Bromophenyl)-5-(ethylsulfonyl)-1-methyl-1H-imidazol-4-yl]-6,6,7,7-tetrafluoro-1-methyl-6,7-dihydro-1H-[1,4]dioxino[2,3-f]benzimidazole]	100%	100%
CCS(=O)(=O)c1c(-c2nc3cc4c(cc3[nH]2)OC(F)(F)C(F)(F)O4)nc(Br)n1C [Example I-2, 2-[2-Bromo-5-(ethylsulfonyl)-1-methyl-1H-imidazol-4-yl]-6,6,7,7-tetrafluoro-6,7-dihydro-1H-[1,4]dioxino[2,3-f]benzimidazole]	100%	100%
CCS(=O)(=O)c1c(-c2nc3cc4c(cc3n2C)OC(F)(F)C(F)(F)O4)nc(-c2cccc(Cl)c2)n1C [Example I-13, 2-[2-(3-Chlorophenyl)-5-(ethylsulfonyl)-1-methyl-1H-imidazol-4-yl]-6,6,7,7-tetrafluoro-1-methyl-6,7-dihydro-1H-[1,4]dioxino[2,3-f]benzimidazole]	100%	100%
CCS(=O)(=O)c1c(-c2nc3cc4c(cc3n2C)OC(F)(F)C(F)(F)O4)nc(-c2ccc(C#N)cn2)n1C [Example I-32, 6-[5-(Ethylsulfonyl)-1-methyl-4-(6,6,7,7-tetrafluoro-1-methyl-6,7-dihydro-1H-[1,4]dioxino[2,3-f]benzimidazol-2-yl)-1H-imidazol-2-yl]nicotinonitrile]	100%	100%
CCS(=O)(=O)c1c(-c2nc3cc4c(cc3n2C)OC(F)(F)C(F)(F)O4)nc(-c2ccc(C3(C(F)(F)F)CC3)cc2)n1C [Example I-7, 2-[5-(Ethylsulfonyl)-1-methyl-2-{4-[1-(trifluoromethyl)cyclopropyl]phenyl}-1H-imidazol-4-yl]-6,6,7,7-tetrafluoro-1-methyl-6,7-dihydro-1H-[1,4]dioxino[2,3-f]benzimidazole]		100%
CCS(=N)(=O)c1c(-c2nc3cc4c(cc3n2C)OC(F)(F)C(F)(F)O4)nc(-c2ccc(C3(C#N)CC3)cc2)n1C (centres unmarked) [Example I-39]	100%	
